From publication PMC11784839, “Monoaminergic neurotransmitters are bimodal effectors of tau aggregation” (Science Advances, 2025) come the findings set out here.

This assay deals with tau (Homo sapiens, UniProt P10636). As to the kind of experiment: MCE Phenols Library screening, tau biosensor cell seeding assay (AvZ). The settings on record: for Z repl 1 / Z Repl 2: Z score; for Z repl 1 / raw data 1: replicate 1; for Z Repl 2 / raw data 2: replicate 2; for AvZ (average z score of seeding, SDs from the mean level of seeding): 10 μM phenol in cell cultures, AD brain homogenate preincubated 16 hours, two biological replicates, positive = catalyzes seeding, negative = inhibits. In kind it is cell-based.

The mark [1] stands for this setting: average Z score of the two replicates, MCE Phenols Library screen.
Where [2] appears, read: average puncta of the two replicates.
The mark [3] stands for this setting: average Z score of two replicates, Phenols Library screen.
The mark [4] stands for this setting: average Z score of the two replicates, tau seeding.
Where [5] appears, read: average Z score of the two replicates, tau biosensor seeding, MCE Phenols Library screen.

Sequence of tau (P10636 623-695 limits assumed): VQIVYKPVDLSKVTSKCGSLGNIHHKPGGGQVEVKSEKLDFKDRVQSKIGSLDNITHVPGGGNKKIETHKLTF

With `O=c1c(O)c(-c2ccc(O)c(O)c2)oc2cc(O)ccc12` [Fisetin], the “Z repl 1” value is given as -1.392 and the “Z Repl 2” value was -0.758. For the same molecule, under setting [1], the “av Z” value is listed as -1.075. For the same molecule, where the note is “average of raw data 1 and 2”, the av puncta stood at 7157.01. Besides, where the note is “puncta”, the “raw data 1” value was 9642.85 and the “raw data 2” value came to 4671.16.

As for `O=C1C[C@@H](c2ccc(O)c(O)c2)Oc2c1ccc(O[C@@H]1O[C@H](CO)[C@@H](O)[C@H](O)[C@H]1O)c2O` [Flavanomarein], the “Z repl 1” value is given as -0.895 and the “Z Repl 2” value is reported as -0.498. Under setting [1], the “av Z” value was -0.697. Under setting [2], this molecule had an av puncta of 11525.3. Moreover, where the note is “puncta”, the “raw data 1” value is on record as 15599.3 and the “raw data 2” value came to 7451.23.

Take `COc1cc(O)c(C(=O)/C=C/c2ccccc2)c(OC)c1` [Flavokawain B]: the “Z repl 1” value is listed as -0.296 and the “Z Repl 2” value was -0.062. For the same molecule, the “av Z” value under setting [3] was -0.179. This molecule also showed an av puncta (average of raw data 1 and 2) of 17449.7. Moreover, under “puncta”, the “raw data 1” value came out at 22793.1 and the “raw data 2” value was 12106.3.

With `COc1cc(O)c(C(=O)/C=C/c2ccc(O)cc2)c(OC)c1` [Flavokawain C], the “Z repl 1” value is given as -0.666 and the “Z Repl 2” value is on record as -0.177. Also, the “av Z” value under setting [1] is -0.422. Also, the av puncta under setting [2] was determined as 14614.7. Moreover, under “raw puncta”, the “raw data 1” value is recorded as 18356 and the “raw data 2” value amounted to 10873.4.

Consider `C[C@@H]1O[C@@H](OC[C@H]2O[C@@H](OCCc3ccc(O)c(O)c3)[C@H](O)[C@@H](O)[C@@H]2OC(=O)/C=C/c2ccc(O)c(O)c2)[C@H](O)[C@H](O)[C@H]1O` [Forsythiaside A], for which the “Z repl 1” value turned out to be 0.23 and the “Z Repl 2” value was -0.492. The “av Z” value under setting [3] is -0.131. The av puncta (average of raw data 1 and 2) stood at 18310.1. Where the note is “puncta”, the “raw data 1” value is 29105.9 and the “raw data 2” value is 7514.37.

As for `C[C@@H]1O[C@@H](OC[C@H]2O[C@@H](OCCc3ccc(O)c(O)c3)[C@H](O)[C@@H](OC(=O)/C=C/c3ccc(O)c(O)c3)[C@@H]2O)[C@H](O)[C@H](O)[C@H]1O` [Forsythoside I], the “Z repl 1” value is -1.102 and the “Z Repl 2” value is -0.666. In addition, the “av Z” value under setting [1] is on record as -0.884. Moreover, the av puncta (average of raw data 1 and 2) stood at 9388.55. Where the note is “puncta”, the “raw data 1” value was 13120.4 and the “raw data 2” value was 5656.67.

Regarding `COc1cc2ccc(=O)oc2c(O)c1O` [Fraxetin], the “Z repl 1” value is given as -0.275 and the “Z Repl 2” value is -0.769. In addition, the “av Z” value under setting [1] is on record as -0.522. Under setting [2], this molecule displayed an av puncta of 13803.1. Further, where the note is “puncta”, the “raw data 1” value was determined as 23050.6 and the “raw data 2” value turned out to be 4555.69.

Turning to `COc1cc2ccc(=O)oc2c(O)c1OC` [Fraxidin], the “Z repl 1” value is 0.561 and the “Z Repl 2” value was -0.256. Moreover, the “av Z” value under setting [4] stood at 0.152. Moreover, for the setting “average of raw data 1 and 2”, the av puncta is on record as 21554.2. In addition, where the note is “puncta”, the “raw data 1” value is recorded as 33079.8 and the “raw data 2” value turned out to be 10028.5.

As for `COc1cc2ccc(=O)oc2c(O[C@@H]2O[C@H](CO)[C@@H](O)[C@H](O)[C@H]2O)c1O` [Fraxin], the “Z repl 1” value is recorded as 0.183 and the “Z Repl 2” value was -0.668. Further, under setting [1], the “av Z” value is given as -0.243. The molecule also showed an av puncta under setting [2] of 17088. Also, for the setting “raw puncta”, the “raw data 1” value amounted to 28547.2 and the “raw data 2” value stood at 5628.78.

As to `O=c1c(O)c(-c2ccccc2)oc2cc(O)cc(O)c12` [Galangin], the “Z repl 1” value came to 0.212 and the “Z Repl 2” value was -0.203. In addition, under setting [3], the “av Z” value was found to be 0.004. The av puncta (average of raw data 1 and 2) worked out at 19744.8. In addition, for the setting “puncta”, the “raw data 1” value turned out to be 28893.6 and the “raw data 2” value was 10595.9.

For the molecule `O.O=C(O)c1cc(O)c(O)c(O)c1` [Gallic acid (hydrate)], the “AvZ (average z score of seeding, SDs from the mean level of seeding)” value (“AvZ” for short) was -1.246; the “Z repl 1” value is given as -1.396; the “Z Repl 2” value is -1.097. The same molecule registered an av puncta (average of raw data 1 and 2) of 5320.33. For the same molecule, for the setting “puncta”, the “raw data 1” value came out at 9587.18 and the “raw data 2” value is on record as 1053.49.

As for `O=C(O)c1cc(O)c(O)c(O)c1` [Gallic acid], the “AvZ” value is reported as -1.627; the “Z repl 1” value is given as -2.072; the “Z Repl 2” value is -1.182. Where the note is “average of raw data 1 and 2”, this molecule showed an av puncta of 803.018. For the setting “puncta”, the “raw data 1” value is given as 1468.86 and the “raw data 2” value is recorded as 137.18.

Regarding `CC(C)=CCC/C(C)=C/Cc1c(O)c(CC=C(C)C)c2c(c1O)C(=O)C1=C[C@@H]3C[C@H]4C(C)(C)O[C@@](C/C=C(/C)C(=O)O)(C3=O)[C@@]14O2` [Gambogenic acid], the “av Z” value under setting [1] is -1.587.

For the molecule `CC(C)=CCC[C@]1(C)C=Cc2c(O)c3c(c(CC=C(C)C)c2O1)O[C@]12C(=C[C@@H]4C[C@H]1C(C)(C)O[C@@]2(C/C=C(/C)C(=O)O)C4=O)C3=O` [Gambogic acid], the “AvZ” value is -1.57; the “Z repl 1” value is reported as -2.192; the “Z Repl 2” value was -0.952. Further, under setting [1], the “av Z” value is given as -1.572. The av puncta (average of raw data 1 and 2) was found to be 1315.22. Also, where the note is “puncta”, the “raw data 1” value stood at 33.834 and the “raw data 2” value was found to be 2596.6.

`CC(C)=CCc1c(O)cc2oc3cc(O)c(O)c(CC=C(C)C)c3c(=O)c2c1O` [Gamma-Mangostin]: the “Z repl 1” value is -0.442 and the “Z Repl 2” value is on record as -0.111. In addition, under setting [1], the “av Z” value is given as -0.277. The molecule further gave an av puncta under setting [2] of 16310.3. For the same molecule, for the setting “raw puncta”, the “raw data 1” value came out at 21043.4 and the “raw data 2” value worked out at 11577.2.

Consider `COc1ccc(-c2cc(=O)c3c(O)c(OC)c(OC)c(OC)c3o2)cc1` [Gardenin B], for which the “Z repl 1” value was determined as 0.816 and the “Z Repl 2” value was found to be 0.967. Also, under setting [5], the “av Z” value turned out to be 0.892. The av puncta (average of raw data 1 and 2) is 29624.1. Also, where the note is “puncta”, the “raw data 1” value was determined as 36150 and the “raw data 2” value was 23098.1.

For the molecule `OCc1ccc(O[C@@H]2O[C@H](CO)[C@@H](O)[C@H](O)[C@H]2O)cc1` [Gastrodin], the “Z repl 1” value is listed as -1.05 and the “Z Repl 2” value is -0.621. In addition, the “av Z” value under setting [1] is -0.836. This molecule also yielded an av puncta (average of raw data 1 and 2) of 9937.48. Also, under “puncta”, the “raw data 1” value worked out at 13738.4 and the “raw data 2” value is 6136.55.

In the case of `O=c1c(-c2ccc(O)cc2)coc2cc(O)cc(O)c12` [Genistein], the “Z repl 1” value is 0.361 and the “Z Repl 2” value is 0.231. For the same molecule, the “av Z” value under setting [4] amounted to 0.296. This molecule also displayed an av puncta (average of raw data 1 and 2) of 22958.3. Where the note is “puncta”, the “raw data 1” value amounted to 30681.6 and the “raw data 2” value is 15235.1.

As for `O=c1c(-c2ccc(O)cc2)coc2cc(O[C@@H]3O[C@H](CO)[C@@H](O)[C@H](O)[C@H]3O)cc(O)c12` [Genistin], the “Z repl 1” value is 0.673 and the “Z Repl 2” value was found to be 0.138. Moreover, the “av Z” value under setting [4] came out at 0.406. For the same molecule, the av puncta (average of raw data 1 and 2) came out at 24334.9. Besides, under “puncta”, the “raw data 1” value is 34427 and the “raw data 2” value is 14242.8.

Regarding `COc1cc(O)c2c(=O)cc(-c3ccc(O)cc3)oc2c1` [Genkwanin], the “Z repl 1” value came to 1.231 and the “Z Repl 2” value was determined as 0.655. Besides, the “av Z” value under setting [5] was determined as 0.943. For the same molecule, for the setting “average of raw data 1 and 2”, the av puncta is listed as 30446.8. Also, where the note is “puncta”, the “raw data 1” value is on record as 41129.3 and the “raw data 2” value amounted to 19764.4.

As for `O=C1O[C@H]2[C@@H]3OC(=O)c4cc(O)c(O)c(O)c4-c4c(cc(O)c(O)c4O)C(=O)OC[C@H]2O[C@@H](OC(=O)c2cc(O)c(O)c(O)c2)[C@@H]3OC(=O)c2cc(O)c(O)c3c2[C@@H]2C1=CC(=O)[C@](O)(O3)C2(O)O` [Geraniin], the “Z repl 1” value is listed as -2.121 and the “Z Repl 2” value is -1.184. Besides, the “av Z” value under setting [1] is -1.653. In addition, the av puncta (average of raw data 1 and 2) is on record as 501.022. Also, where the note is “puncta”, the “raw data 1” value is 880.948 and the “raw data 2” value is given as 121.096.

For the molecule `CCCCCC/C=C\CCCCCCCCCc1cccc(O)c1C(=O)O` [Ginkgolic acid C17:1], the “AvZ” value came out at 0.292; the “Z repl 1” value came out at 0.386; the “Z Repl 2” value was determined as 0.198. Also, the av puncta (average of raw data 1 and 2) is 22931. Further, where the note is “puncta”, the “raw data 1” value was 30979.1 and the “raw data 2” value is listed as 14882.8.

Take `CC1(C)C=Cc2c(ccc3c2OC[C@@H](c2ccc(O)cc2O)C3)O1` [Glabridin]: the “Z repl 1” value stood at 0.624 and the “Z Repl 2” value is given as 0.805. The “av Z” value under setting [4] was 0.715. This molecule also showed an av puncta (average of raw data 1 and 2) of 27603.9. Further, under “puncta”, the “raw data 1” value stood at 33843.5 and the “raw data 2” value came out at 21364.3.

Take `COc1cc2c(=O)c(-c3ccc(O)cc3)coc2cc1O` [Glycitein]: the “Z repl 1” value is listed as 0.123 and the “Z Repl 2” value is reported as -0.524. Also, the “av Z” value under setting [1] is given as -0.2. In addition, the av puncta under setting [2] is listed as 17498.7. Under “raw puncta”, the “raw data 1” value was determined as 27830.8 and the “raw data 2” value came to 7166.64.

Take `COc1c(CC=C(C)C)c(O)cc2oc(=O)c(-c3ccc(O)cc3O)cc12` [Glycycoumarin]: the “Z repl 1” value is 0.796 and the “Z Repl 2” value is listed as 0.821. Besides, the “av Z” value under setting [5] is listed as 0.808. The av puncta (average of raw data 1 and 2) is 28718.5. Further, where the note is “puncta”, the “raw data 1” value is on record as 35905.3 and the “raw data 2” value stood at 21531.6.

As to `Oc1cc(O)cc(/C=C/c2c(O)cccc2O)c1` [Gnetol], the “Z repl 1” value is on record as -2.02 and the “Z Repl 2” value is -1.135. Also, under setting [1], the “av Z” value was -1.577. The same molecule came in with an av puncta (average of raw data 1 and 2) of 1372.64. Further, where the note is “puncta”, the “raw data 1” value stood at 2096.46 and the “raw data 2” value is reported as 648.824.
